{"source": "patent US4939124A", "about": "“Treatment and diagnosis of dementia” (Laboratorios Serono S.A., priority 1988, dated 1990)", "key": {"Male Wistar rats [1]": {"system": "Male Wistar rats", "experiment": "Locomotor activity and learning in maze paradigm (escape from 1.5 mA shock area), i.c.v. injection", "assay_type": "in vivo", "conditions": "GRF1-44 5 mcg i.c.v., 30 minutes; control 17.12±5.42 pm"}, "[2]": {"system": "SDAT patients and controls", "experiment": "Mental performance and behavior after the GRF test (DRS, MMS, BCRS, MNS)", "assay_type": "in vivo, human", "conditions": "for DRS score: basal 3.5±1.75; for MMS score: basal 3.5±2.65", "protocol": "All the SDAT patients met the DSM-III criteria for primary degenerative dementia and rigorous diagnostic criteria for SDAT. […] In LOSDAT, the onset of the disease occurred after the age of 60. The degree of severity of the dementia was assessed with Hasegawa's Dementia Rating Scale (DRS) (Hasegawa K., Inoue K. \"An investigation of dementia rating scale for the elderly.\" Seishinigaku 16:965-969, 1974), Folstein's Mini-Mental State (MMS) Test (Folstein M. F., Folstein S., McHugh P. \"Mini-mental state: a practical method for grading the cognitive state of patients for the clinician.\" J. Psychiat. Res. 12:189-198, 1975) and a modified model of the Brief Cognitive Rating Scale (BCRS) and Functional Assessment Stages (FAST) of Reisberg (Reisberg B., Ferris S. H., De Leon M. J. \"Senile dementia of the Alzheimer type: Diagnosis and differential diagnostic features with special reference to functional assessment staging.\" in: Traber J., Gispen W. H. (Ed). Senile dementia of the Alzheimer type. pp 18-37, Springer-Verlag, Berlin, 1985). Concomitant pathology other than SDAT was discarded under a careful screening of the subjects with CT Scan, EEG, ECG and complementary laboratory data. Current diagnosis or history of SDM-III major affective disorder or schizophrenia as well as history of endocrine disease were criteria for exclusion. All of the control subjects were free of psychiatric and endocrine illness. All subjects included had been drug-free for a minimum of 7 days before testing.\n(§1) Simultaneously to the performance of the GRF test, electroencephalograhic and cardiovascular monitorization of the subjects were carried out. Twenty-four hours prior to the GRF test, and 3, 12, 24 and 48 hours after testing, the DRS, MMS, BCRS, and FAST tests were performed to evaluate mental performance and behavior. Additional monitoring of GRF effects was done by global physician assessment and evaluation of the Mihara Nursing Scale (MNS). This test was developed to be used as a non-cognitive parametric indicator involving several items, including quantification of food intake, locomotion, social interaction, and complementary laboratory data.\n(§2) The results were analyzed statistically by the Student's test, analysis of variance (ANOVA) and the Mann-Whitney test using a NEC PC-9801VM2 computer."}, "Male Wistar rats [3]": {"system": "Male Wistar rats", "experiment": "Locomotor activity and learning in maze paradigm (escape from 1.5 mA shock area), i.c.v. injection", "assay_type": "in vivo", "protocol": "The animals had to learn to escape from the shock area in order to avoid a continuous 1.5 mA electric shock. Experimental time --30 minutes.\nThe rats were treated intracerebroventricularly with SS-14 (1 mcg) and GRF1-44 (1 mcg) and their behavior was automatically recorded by computer using the maze paradigm shown in FIG. 1. p/t denotes pulses per time unit (minute). Locomotor activity was quantified in pulses per minute or cm^2 /min. Total inputs (I/O) in neutral position (white bars) and shock position (black bars) denote how many times the animals enter neutral and shock areas. The N/S ratio results from dividing I/O in neutral position by I/O in shock position and is interpreted as an index of learning in the 30-minute experimental period. The positional time (seconds) represents how long the animals stay in neutral (white bars) or shock (black bars) areas. N-sp and S-sp (in seconds) indicate the time-latency per movement or input in neutral (white bars) and shock (black bars) areas, respectively.\nTo clarify whether SS and GRF display at the central level the same antagonistic effect that they have at the pituitary level, the effects of these neuropeptides on several behavioral parameters have been studied using the OUCEM-86^TM (Osaka University Computerized Electronic Maze). The system is integrated by the following components: a Programmable Electronic Platform (PEP) (620×620 mm) equipped with 48 photo beam sensors (OPX-T30); a Programming Panel (PP) (Model BECM-0064) for paradigm stimulation; a Shock Generator Scrambler (SGS) (Model BSG-1065) to apply continuous or discontinuous electric current to the PEP; a Control Station (CS) (BEC 16-Bio Computer Control Station BCS-1105; Bio Medica, Ltd., Osaka) which processes inputs/outputs as an interface device to automatically computerize behavioral parameters; and a Computer System (NEC PC-9801 VM2) with 1 megabyte Random Access Memory (RAM) for data processing and experimental setting.\nMale Wistar rats (175-200 g) (N =5-8 rats/group) received intracerebroventricular (i.c.v.) injections of GRF1-44 and SS-14 over a range of 0.1 to 10 mcg. Then the rats were studied in the OUCEM under two different paradigms (e.g., open field and maze paradigms).\nThe amount of inputs (I/O) induced by SS was 103.5±29.5 (control =216.25±55.19, t=8.49, p<0.005) in the neutral area (NA) and 77.14±13.5 I/O in the shock area (SA) (control =298±40, t=1.26, n.s.). GRF generated 459.35±32.5 I/O in NA (t=18.13, p<0.005) and 340.5±63.5 I/O in SA (t=9.07, p<0.005) (FIGS. 1C,3). The NA/SA (N/S) ratios for control, SS- and GRF-treated rats were 0.72, 1.33, and 1.35, respectively (FIG. 2)."}, "[4]": {"system": "controls and SDAT subjects", "experiment": "Electroencephalographic monitoring during the GRF test", "assay_type": "in vivo, human", "conditions": "for EEG amplitude, sequential analysis (increase) / EEG frequency, sequential analysis (fall): 15 to 45 minutes after injection", "protocol": "as §1, §2"}}}
{"substance": "growth hormone releasing factor [GRF]", "values": [{"measurement": "locomotor activity (LA), maze paradigm", "setting": "Male Wistar rats [1]", "result": "90.2±8.4", "unit": "pm"}, {"measurement": "DRS score", "setting": "[2]; 3 hr after GRF test", "result": "5.5±2.10"}, {"measurement": "MMS score", "setting": "[2]; 3 hr after GRF test", "result": "5.15±3.75"}, {"measurement": "DRS score", "setting": "[2]; 12 hr after GRF test", "result": "6.75±3.25"}, {"measurement": "MMS score", "setting": "[2]; 12 hr after GRF test", "result": "5.5±3.65"}, {"measurement": "DRS score", "setting": "[2]; 24 hr after GRF test", "result": "4.35±1.95"}, {"measurement": "MMS score", "setting": "[2]; 24 hr after GRF test", "result": "4.5±2.75"}, {"measurement": "DRS score", "setting": "[2]; 48 hr after GRF test", "result": "3.5±1.55"}, {"measurement": "MMS score", "setting": "[2]; 48 hr after GRF test", "result": "4.35±2.75"}, {"measurement": "duration of behavioral changes", "setting": "[2]; BCRS and MNS changes after GRF test", "result": "transient"}, {"measurement": "BCRS Axis 4 (orientation) affected by GRF", "setting": "[2]; after GRF test", "result": 30, "unit": "%"}, {"measurement": "BCRS Axis 7 (psychomotor) affected by GRF", "setting": "[2]; after GRF test", "result": 50, "unit": "%"}, {"measurement": "BCRS Axis 8 (mood and behavior) affected by GRF", "setting": "[2]; after GRF test", "result": 40, "unit": "%"}, {"measurement": "bulimic syndrome developed", "setting": "[2]; after GRF test", "result": 2, "unit": "patients"}, {"measurement": "appetite increased (MNS), share of subjects", "setting": "[2]; controls", "result": 30, "unit": "%"}, {"measurement": "appetite increased (MNS), share of subjects", "setting": "[2]; patients", "result": 45, "unit": "%"}, {"measurement": "social interaction improved (MNS), share of subjects", "setting": "[2]; patients", "result": 40, "unit": "%"}, {"measurement": "locomotor activity (LA), maze paradigm", "setting": "Male Wistar rats [3]; 1 mcg i.c.v., 30 minutes, control 17.12±5.42 pm", "result": "26.66±3.15", "unit": "pm"}, {"measurement": "NA/SA (N/S) ratio (index of learning)", "setting": "Male Wistar rats [3]; 1 mcg i.c.v., control 0.72", "result": 1.35}, {"measurement": "amount of inputs (I/O) in the neutral area (NA)", "setting": "Male Wistar rats [3]; 1 mcg i.c.v., control 216.25±55.19", "result": "459.35±32.5", "unit": "I/O"}, {"measurement": "amount of inputs (I/O) in the shock area (SA)", "setting": "Male Wistar rats [3]; 1 mcg i.c.v., control 298±40", "result": "340.5±63.5", "unit": "I/O"}, {"measurement": "I/O rate and positional time in SA", "setting": "Male Wistar rats [3]; GRF i.c.v., hyperkinetic syndrome, vs control group", "result": "significantly higher than in the control group"}, {"measurement": "learning abilities (N/S ratio as index)", "setting": "Male Wistar rats [3]; doses of approximately 6.10×10^-10 mol (SS) and 1.98×10^-10 mol (GRF), i.c.v.", "result": "improve learning abilities"}, {"measurement": "EEG amplitude, sequential analysis (increase)", "setting": "[4]; SDAT patients", "result": "52.5±9.89", "unit": "uV"}, {"measurement": "EEG frequency, sequential analysis (fall)", "setting": "[4]; SDAT patients", "result": "7.05±0.90", "unit": "Hz"}, {"measurement": "EEG basic rhythm frequency, global evaluation after testing", "setting": "[4]; SDAT, prior to GRF test 8.08±0.67 Hz", "result": "7.46±0.53", "unit": "Hz"}, {"measurement": "EEG basic rhythm amplitude, global evaluation after testing", "setting": "[4]; SDAT, prior to GRF test 40.80±6.06 uV", "result": "43.69±5.12", "unit": "uV"}, {"measurement": "EEG amplitude, sequential analysis (increase)", "setting": "[4]; control subjects", "result": "55.60±6.40", "unit": "uV"}, {"measurement": "EEG frequency, sequential analysis (fall)", "setting": "[4]; control subjects", "result": "8.75±0.25", "unit": "Hz"}, {"measurement": "EEG basic rhythm frequency, global evaluation after testing", "setting": "[4]; controls, prior to GRF test 9.27±0.11 Hz", "result": "9.05±0.12", "unit": "Hz"}, {"measurement": "EEG basic rhythm amplitude, global evaluation after testing", "setting": "[4]; controls, prior to GRF test 47.36±3.36 uV", "result": "49.67±5.75", "unit": "uV"}]}
